Experimental data: patent publication US8557843B2, “Quinoline derivatives and their use as tyrosine kinase inhibitors” (ClanoTech AB, priority 2007, dated 2013)

Assays:
[1] = molecular target: T1, alpha-v-beta-3 (Homo sapiens, UniProt P05106+P06756); assay: Integrin assay: SHG, inhibition of RGD-peptide-induced conformational change; type: biochemical; settings: compound pre-incubated at 100 μM for 20 minutes, then RGD peptide 400 μM; labeled alpha-v-beta-3
T1 construct: obtained from academic sources as recombinant, soluble proteins (the extracellular domain)
Procedure: (§1) This assay was conducted by Biodesy (Burlingame, Calif., USA). Purified integrins were obtained from academic and commercial sources. Alpha-5-beta-1 and alpha-v-beta-3 were obtained from academic sources as recombinant, soluble proteins (the extracellular domain).
(§2) A standard labeling protocol developed for integrins was applied to each of the three proteins. All proteins were successfully labeled with an average label:protein ratio of ˜4:1. The two soluble, labeled proteins (alpha5beta1 and alphavbeta3) produced background SHG (second-harmonic generation) signals. They also produced conformational change signals upon exposure to GRGDSP (RGD-peptide, a fibronectin-derived peptide Gly-Arg-Gly-Asp-Ser-Pro). The peptide was added at 400 μM and signal changes were immediate (FIG. 1).
(§3) Next, Example 4 was pre-incubated at 100 μM with the labeled proteins for 20 minutes. RGD peptide was then added (400 μM) to stimulate the protein and to test each compound for inhibition.

[2] = molecular target: T2, alpha-5-beta-1 (Homo sapiens, UniProt P05556+P08648); assay: as above; type: biochemical; settings: compound pre-incubated at 100 μM for 20 minutes, then RGD peptide 400 μM; labeled alpha-5-beta-1
T2 construct: obtained from academic sources as recombinant, soluble proteins (the extracellular domain)
Procedure: as §1, §2, §3

[3] = tested on: human Calu-6 lung cancer cells; assay: Tumor xenograft model; type: in vivo, SCID mice; settings: 25 mg/kg/day; for inhibition of tumor volume: once daily for 17 days, Calu-6 subcutaneous in SCID mice
Procedure: Female 6-week-old SCID mice were used for tumor studies. Approximately 10^6 human Calu-6 lung cancer cells growing in logarithmic phase were harvested and resuspended in media, and a single cell solution in a volume of […] was implanted subcutaneously at the right flank of each animal. 10 mice were used in the treated groups and 10 mice were used in the control groups. Systemic treatment by oral administration or iv injections with either […] of vehicle or active substance (25 mg/kg/day) was begun when tumors reached a size of 300 mm^3 and continued once daily for a total of 17 days. Visible tumors were present day 5-10 after implantation. Primary tumors were measured with digital calipers on the days indicated. Tumor volumes were calculated according to the formula: Length×width^2×0.52 as reported.

[4] = tested on: CNV (chorodial neovascularization); assay: Laser induced mouse eye model (CNV); type: in vivo; settings: given orally at 50 mg/kg/day, laser-induced CNV in mice
From the text: This laser-induced model of CNV is a highly reproducible model that mimics many features of CNV occurring in the wet form of age-related macular degeneration (AMD), the leading cause of blindness in the elderly.

T1 sequence (P06756 31-992 limits assumed): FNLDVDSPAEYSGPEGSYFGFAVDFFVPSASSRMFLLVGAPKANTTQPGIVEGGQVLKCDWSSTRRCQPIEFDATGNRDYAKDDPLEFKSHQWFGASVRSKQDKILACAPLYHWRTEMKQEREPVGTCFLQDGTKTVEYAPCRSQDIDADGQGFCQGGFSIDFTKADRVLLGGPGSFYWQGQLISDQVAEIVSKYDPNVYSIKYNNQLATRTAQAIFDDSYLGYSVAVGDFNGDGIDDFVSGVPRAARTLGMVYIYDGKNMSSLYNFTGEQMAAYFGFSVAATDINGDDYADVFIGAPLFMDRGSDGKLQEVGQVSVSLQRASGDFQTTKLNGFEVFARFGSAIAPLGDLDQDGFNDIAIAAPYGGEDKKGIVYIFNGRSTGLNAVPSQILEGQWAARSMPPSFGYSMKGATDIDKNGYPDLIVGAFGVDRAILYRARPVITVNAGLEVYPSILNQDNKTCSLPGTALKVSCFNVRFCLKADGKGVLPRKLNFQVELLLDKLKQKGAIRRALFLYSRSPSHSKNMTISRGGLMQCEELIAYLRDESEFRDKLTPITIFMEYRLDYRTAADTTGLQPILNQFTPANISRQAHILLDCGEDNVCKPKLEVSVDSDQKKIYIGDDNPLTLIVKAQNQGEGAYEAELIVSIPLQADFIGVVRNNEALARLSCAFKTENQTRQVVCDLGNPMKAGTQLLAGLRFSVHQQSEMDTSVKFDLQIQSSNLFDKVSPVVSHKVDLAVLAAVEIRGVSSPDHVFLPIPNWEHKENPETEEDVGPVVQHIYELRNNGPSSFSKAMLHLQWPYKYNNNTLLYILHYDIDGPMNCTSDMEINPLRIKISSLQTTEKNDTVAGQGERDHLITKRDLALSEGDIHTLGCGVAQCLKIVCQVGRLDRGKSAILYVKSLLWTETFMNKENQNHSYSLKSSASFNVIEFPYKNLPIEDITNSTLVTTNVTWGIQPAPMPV
T1 sequence (P05106 27-718 limits assumed): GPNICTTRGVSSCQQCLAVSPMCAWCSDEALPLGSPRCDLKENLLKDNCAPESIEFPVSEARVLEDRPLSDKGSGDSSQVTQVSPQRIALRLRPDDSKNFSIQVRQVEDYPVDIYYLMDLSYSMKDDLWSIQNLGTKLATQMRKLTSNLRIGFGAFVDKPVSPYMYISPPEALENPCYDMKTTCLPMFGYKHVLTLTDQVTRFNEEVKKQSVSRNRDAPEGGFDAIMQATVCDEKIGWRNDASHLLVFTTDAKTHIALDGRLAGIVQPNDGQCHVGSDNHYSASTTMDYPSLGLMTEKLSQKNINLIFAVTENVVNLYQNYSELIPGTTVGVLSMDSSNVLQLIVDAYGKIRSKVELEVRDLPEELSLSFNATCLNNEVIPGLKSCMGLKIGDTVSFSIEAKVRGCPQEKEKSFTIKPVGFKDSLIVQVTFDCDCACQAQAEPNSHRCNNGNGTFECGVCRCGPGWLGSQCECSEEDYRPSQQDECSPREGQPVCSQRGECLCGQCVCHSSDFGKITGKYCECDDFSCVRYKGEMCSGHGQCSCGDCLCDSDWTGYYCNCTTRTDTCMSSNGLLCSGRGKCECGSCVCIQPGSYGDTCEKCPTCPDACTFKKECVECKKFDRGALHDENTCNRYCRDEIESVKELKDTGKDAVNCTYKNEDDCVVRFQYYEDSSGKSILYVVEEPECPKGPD
T2 sequence (P08648 42-995 limits assumed): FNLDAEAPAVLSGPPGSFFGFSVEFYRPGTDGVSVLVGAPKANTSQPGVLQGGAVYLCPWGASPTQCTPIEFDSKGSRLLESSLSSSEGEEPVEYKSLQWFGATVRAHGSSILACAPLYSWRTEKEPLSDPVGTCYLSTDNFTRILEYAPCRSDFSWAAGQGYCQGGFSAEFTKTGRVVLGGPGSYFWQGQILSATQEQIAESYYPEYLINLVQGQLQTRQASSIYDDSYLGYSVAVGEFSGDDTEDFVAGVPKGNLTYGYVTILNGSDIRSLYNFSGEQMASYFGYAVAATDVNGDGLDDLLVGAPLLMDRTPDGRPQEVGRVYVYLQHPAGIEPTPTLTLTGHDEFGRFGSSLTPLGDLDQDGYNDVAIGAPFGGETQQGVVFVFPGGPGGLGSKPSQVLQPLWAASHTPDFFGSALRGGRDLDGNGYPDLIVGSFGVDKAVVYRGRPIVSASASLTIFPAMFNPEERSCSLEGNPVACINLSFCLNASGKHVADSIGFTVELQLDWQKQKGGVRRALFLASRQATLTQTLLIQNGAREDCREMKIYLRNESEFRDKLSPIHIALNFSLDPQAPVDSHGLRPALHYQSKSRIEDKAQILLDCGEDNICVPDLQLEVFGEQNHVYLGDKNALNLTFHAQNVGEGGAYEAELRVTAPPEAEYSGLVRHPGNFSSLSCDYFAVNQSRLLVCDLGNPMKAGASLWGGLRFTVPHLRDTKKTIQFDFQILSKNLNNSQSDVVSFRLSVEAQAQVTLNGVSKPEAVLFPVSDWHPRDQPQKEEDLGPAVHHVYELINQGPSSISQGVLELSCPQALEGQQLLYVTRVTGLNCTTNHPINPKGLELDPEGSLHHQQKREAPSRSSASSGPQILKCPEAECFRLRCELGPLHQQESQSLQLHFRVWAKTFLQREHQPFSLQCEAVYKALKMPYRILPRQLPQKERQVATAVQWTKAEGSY
T2 sequence (P05556 21-728 limits assumed): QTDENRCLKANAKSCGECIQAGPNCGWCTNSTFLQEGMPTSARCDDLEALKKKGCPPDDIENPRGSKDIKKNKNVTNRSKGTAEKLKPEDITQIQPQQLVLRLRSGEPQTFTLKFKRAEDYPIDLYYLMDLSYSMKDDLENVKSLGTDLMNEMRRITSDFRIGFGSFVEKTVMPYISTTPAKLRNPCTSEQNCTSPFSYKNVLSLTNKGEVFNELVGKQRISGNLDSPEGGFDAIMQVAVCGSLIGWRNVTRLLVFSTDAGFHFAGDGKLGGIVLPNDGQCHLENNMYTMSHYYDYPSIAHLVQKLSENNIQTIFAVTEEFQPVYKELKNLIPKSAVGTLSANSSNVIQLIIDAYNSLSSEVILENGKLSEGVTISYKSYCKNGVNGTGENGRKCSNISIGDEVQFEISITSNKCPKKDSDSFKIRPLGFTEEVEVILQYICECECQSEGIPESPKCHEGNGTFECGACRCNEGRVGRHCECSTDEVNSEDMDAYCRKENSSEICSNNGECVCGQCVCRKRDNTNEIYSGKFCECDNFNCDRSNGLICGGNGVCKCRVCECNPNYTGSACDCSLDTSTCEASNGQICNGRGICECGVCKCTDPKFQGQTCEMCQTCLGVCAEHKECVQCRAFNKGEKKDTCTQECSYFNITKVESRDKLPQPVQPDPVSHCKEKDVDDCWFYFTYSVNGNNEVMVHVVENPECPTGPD

CNC(=O)c1ccc2ncc(C(=O)O)c(Nc3ccc(OC)cc3)c2c1 [Example 4, 4-[(4-Methoxyphenyl)amino]-6-(methylcarbamoyl)quinoline-3-carboxylic Acid]
effect on RGD-induced conformational change (SHG signal) [1]: no effect
effect on RGD-induced conformational change (SHG signal) [2]: prevented RGD-induced conformational change
inhibition of angiogenesis ([3]; both groups (oral and iv), Calu-6 xenograft): inhibits angiogenesis significantly
inhibition of tumor volume ([3]; iv treatment): 71%
inhibition of tumor volume ([3]; oral treatment): 52%
inhibition of CNV growth in eye compared with control [4]: 42%
